This is an account of results in US12699090B2 (priority 2019, dated 2026).

“Also recorded” adds a separate entry of the source.

This experiment deals with PBMCs isolated from naturally M. bovis-infected cattle. Format: cell-based, cattle (Bos taurus taurus).
In the case of “AANKQKQELDEISTNIRQAGVQYSRADEEQQQALSSQMGF [compound 8]”, the “recognition of individual peptide (IFN-γ ELISPOT response, Z-scores)” value (shortened to “recognition of individual peptide”) is listed as “far stronger response”. The result for “AITHGPYCSQFNDTLNVYLT (artificial protein fragment) [compound 39, short Rv3615c peptide]” reads “poor recognition could be compensated”; that for “AITHGPYCSQFNDTLNVYLTAHNALGSSLHTAGVDLAKSL (artificial protein fragment) [compound 10, long Rv3615c fragment]”, “poorly recognized”.

For “GQWRGAAGTAAQAAVVRFQEAANKQKQELDEISTNIRQAG [compound 7]”, the “recognition of individual peptide” value was “far stronger response”. The result for “KQSLTKLAAAWGGSGS (artificial protein fragment) [peptide 17, short ESAT-6 peptide]” reads “strong epitope”; that for “MAEMKTDAATLAQEAGNFERISGDLKTQIDQVESTAGSLQ [compound 5]”, “poorly recognized”; that for “MTENLTVQPERLGVLASHHDNAAVDASSGVEAAAGLGESV (artificial protein fragment) [compound 9, long Rv3615c fragment]”, “poorly recognized”.

Consider “NVTSIHSLLDEGKQSLTKLAAAWGGSGSEAYQGVQQKWDA [peptide 2]”, for which the “recognition of individual peptide” value is “poorly and infrequently recognized”. The result for QEAGNFERISGDLKTQ [peptide 25] reads “strongly recognized; also recorded: recognized promiscuously”. The result for “SHHDNAAVDASSGVEAAAGL (artificial protein fragment) [compound 36, short Rv3615c peptide]” reads “poor recognition could be compensated”.
